Experimental data taken from ChEMBL document CHEMBL1201862, “PubChem BioAssay data set” (2004).
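Exposure lasted 48 hours, with cells grown in 96-well plates and compounds tested at five concentrations. The concentration for 50% growth inhibition is given as GI50.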 Activity calls are given as the source filed them. Cut-off read from the data, not from the text of the source: active = GI50 up to about 1.1 µM and inactive = higher. Peptide text beside a SMILES is read from it. * marks the point of attachment. X27 = Clc1c(Cl)c(Cl)c(O*)c(Cl)c1Cl; Boc = CC(C)(C)OC(=O)*; OBn = c1ccc(CO*)cc1; Bn = c1ccc(C*)cc1

Key:
Assay in all cases: inhibition of tumour cell growth, NCI panel, 48 h
NCI-H460 = test system: NCI-H460
EKVX = test system: EKVX
MOLT-4 = test system: MOLT-4
A549 = test system: A549
LOX IMVI = test system: LOX IMVI
SK-OV-3 = test system: SK-OV-3
PC-3 = test system: PC-3
ACHN = test system: ACHN
HCT-15 = test system: HCT-15
KM12 = test system: KM12
A498 = test system: A498
K562 = test system: K562
BT-549 = test system: BT-549
UO-31 = test system: UO-31
786-0 = test system: 786-0
MDA-N = test system: MDA-N
HCT-116 = test system: HCT-116
HCC 2998 = test system: HCC 2998
HOP-62 = test system: HOP-62
T47D = test system: T47D

SMILES | GI50 (NCI-H460) | GI50 (EKVX) | GI50 (MOLT-4) | GI50 (A549) | GI50 (LOX IMVI) | GI50 (SK-OV-3) | GI50 (PC-3) | GI50 (ACHN) | GI50 (HCT-15) | GI50 (KM12) | GI50 (A498) | GI50 (K562) | GI50 (BT-549) | GI50 (UO-31) | GI50 (786-0) | GI50 (MDA-N) | GI50 (HCT-116) | GI50 (HCC 2998) | GI50 (HOP-62) | GI50 (T47D)
COc1ccc(C2C3=C(CCCC3=O)N(c3ccccc3)C3=C2C(=O)CCC3)cc1 | > 100 µM (inactive) | > 100 µM (inactive) | > 100 µM (inactive) | > 100 µM (inactive) | > 100 µM (inactive) | 50.6 µM (inactive) | > 100 µM (inactive) | > 100 µM (inactive) | > 100 µM | > 100 µM (inactive) | > 100 µM (inactive) | > 100 µM (inactive) | 29.4 µM (inactive) | > 100 µM (inactive) | 45.6 µM (inactive) |  |  |  |  | 
COc1cc(N(Cc2ccc3oc(=O)c(-c4ccccc4)nc3c2)Cc2ccc3oc(=O)c(-c4ccccc4)nc3c2)cc(OC)c1OC | > 10 µM (inactive) | > 10 µM (inactive) | > 10 µM (inactive) | > 10 µM (inactive) | > 10 µM (inactive) | > 10 µM (inactive) | > 10 µM (inactive) | > 10 µM (inactive) | > 10 µM | > 10 µM (inactive) |  | > 10 µM (inactive) |  | > 10 µM (inactive) | > 10 µM (inactive) | > 10 µM (inactive) | > 10 µM (inactive) | > 10 µM (inactive) | > 10 µM (inactive) | > 10 µM (inactive)
O=C1OCc2nc3c(c(-c4ccccc4C(F)(F)F)c21)C(=O)OC3 | > 100 µM (inactive) | > 100 µM (inactive) | > 100 µM (inactive) | > 100 µM (inactive) | > 100 µM (inactive) | > 100 µM (inactive) |  | > 100 µM (inactive) | > 100 µM | > 100 µM (inactive) | > 100 µM (inactive) | > 100 µM (inactive) |  | > 100 µM (inactive) | > 100 µM (inactive) |  | > 100 µM (inactive) | > 100 µM (inactive) | > 100 µM (inactive) | 
COc1ccccc1C1C(C(=O)Nc2ccccc2)=C(C)NC(C)=C1C(=O)Nc1ccccc1 | 44 µM (inactive) | 91.4 µM (inactive) | 7.45 µM (inactive) |  | 83.2 µM (inactive) | > 100 µM (inactive) |  | 39.5 µM (inactive) | 54 µM | 28.2 µM (inactive) | 31.7 µM (inactive) | 44.8 µM (inactive) |  | 56.5 µM (inactive) | > 100 µM (inactive) |  | 65.8 µM (inactive) | > 100 µM (inactive) | 83.8 µM (inactive) | 
O=c1[nH]c(=O)n(C2CC(O)C(COP(=O)(OCC(Cl)(Cl)Cl)OCC(Cl)(Cl)Cl)O2)cc1F (configuration not stated) | < 0.0226 µM (active) | > 100 µM (inactive) | 1.1 µM (active) | 0.212 µM (active) | > 35.1 µM (inactive) | > 48.6 µM (inactive) | 15.2 µM (inactive) | 0.298 µM (active) | > 56.1 µM | > 100 µM (inactive) |  | 4.11 µM (inactive) |  | 0.301 µM (active) | 0.245 µM (active) | > 26 µM (inactive) | 2.21 µM (inactive) | < 0.01 µM (active) | 0.115 µM (active) | > 50.8 µM (inactive)
COC(=O)c1nc(-c2nc(CCNC(=O)OC(C)(C)C)sc2Cl)sc1Cl | > 100 µM (inactive) | > 100 µM (inactive) | 23.8 µM (inactive) | > 100 µM (inactive) |  | > 100 µM (inactive) | 28.1 µM (inactive) | 83.2 µM (inactive) | 36.3 µM | 55.3 µM (inactive) | 94.6 µM (inactive) | 36.7 µM (inactive) | 34.5 µM (inactive) | 89.7 µM (inactive) | > 100 µM (inactive) | 49.9 µM (inactive) | 60.7 µM (inactive) | > 100 µM (inactive) | 32.6 µM (inactive) | 
O=Cn1c2ccccc2c2ccccc21 | > 100 µM (inactive) | > 100 µM (inactive) | > 100 µM (inactive) | > 100 µM (inactive) | > 100 µM (inactive) | > 100 µM (inactive) |  | > 100 µM (inactive) | > 100 µM | > 100 µM (inactive) | > 100 µM (inactive) | > 100 µM (inactive) |  | > 100 µM (inactive) | > 100 µM (inactive) |  | > 100 µM (inactive) | > 100 µM (inactive) | > 100 µM (inactive) | 
COc1ccc(C2=Nc3ccccc3SC(C)C2)cc1 (configuration not stated) | > 100 µM (inactive) | > 100 µM (inactive) | 49.8 µM (inactive) | > 100 µM (inactive) | 38.4 µM (inactive) | > 100 µM (inactive) |  | > 100 µM (inactive) | > 100 µM | 32.2 µM (inactive) | > 100 µM (inactive) | 24.4 µM (inactive) |  | > 100 µM (inactive) | > 100 µM (inactive) |  | 18 µM (inactive) | > 100 µM (inactive) | > 100 µM (inactive) | 
Cc1nc2cccc(F)c2c(=O)n1-c1nnc(C(F)(F)F)s1 | > 10 µM (inactive) | > 10 µM (inactive) | > 10 µM (inactive) | > 10 µM (inactive) | > 10 µM (inactive) | > 10 µM (inactive) | > 10 µM (inactive) | > 10 µM (inactive) | > 10 µM | > 10 µM (inactive) |  | > 10 µM (inactive) |  | > 10 µM (inactive) | > 10 µM (inactive) | > 10 µM (inactive) | > 10 µM (inactive) | > 10 µM (inactive) | > 10 µM (inactive) | > 10 µM (inactive)
NNC(=O)CNC(=O)CSc1nnc(COc2ccc(Cl)cc2)n1-c1ccccc1 | > 100 µM (inactive) | > 100 µM (inactive) | > 100 µM (inactive) | > 100 µM (inactive) | > 100 µM (inactive) | > 100 µM (inactive) | > 100 µM (inactive) | > 100 µM (inactive) | > 100 µM | > 100 µM (inactive) | > 100 µM (inactive) | > 100 µM (inactive) |  | > 100 µM (inactive) | > 100 µM (inactive) | > 100 µM (inactive) | > 100 µM (inactive) | > 100 µM (inactive) | > 100 µM (inactive) | > 100 µM (inactive)
C=C(CN(CC)CC)C1(c2ccccc2)CC2(CCCC2)C(=O)O1 (configuration not stated) | 68.7 µM (inactive) | > 100 µM (inactive) | 53.1 µM (inactive) | > 100 µM (inactive) | > 100 µM (inactive) | > 100 µM (inactive) | 67 µM (inactive) | > 100 µM (inactive) | > 100 µM | > 100 µM (inactive) | > 100 µM (inactive) | > 100 µM (inactive) |  | > 100 µM (inactive) | > 100 µM (inactive) | > 100 µM (inactive) | 38.3 µM (inactive) | > 100 µM (inactive) | > 100 µM (inactive) | > 100 µM (inactive)
COc1ccc(-c2c(C(C)=O)c(-c3ccccc3)n(C3OC(COC(C)=O)C(OC(C)=O)C(OC(C)=O)C3OC(C)=O)c(=S)c2C#N)cc1 (configuration not stated) | > 100 µM (inactive) | > 100 µM (inactive) | > 100 µM (inactive) | > 100 µM (inactive) | > 100 µM (inactive) | > 100 µM (inactive) |  | > 100 µM (inactive) | > 100 µM | > 100 µM (inactive) | > 100 µM (inactive) | > 100 µM (inactive) |  |  | > 100 µM (inactive) | > 100 µM (inactive) | > 100 µM (inactive) | > 100 µM (inactive) | > 100 µM (inactive) | > 100 µM (inactive)
Cc1c2c(cc3c1C(=O)C(=O)C1=C3OC[C@@H]1C)C(C)(C)CCC2 | 13.7 µM (inactive) | 20.9 µM (inactive) | 12.4 µM (inactive) | 13 µM (inactive) | 7.43 µM (inactive) | 41.9 µM (inactive) |  | 16 µM (inactive) | 14.2 µM | 11.9 µM (inactive) | 22.3 µM (inactive) | 14.9 µM (inactive) |  | 18.7 µM (inactive) | 23.4 µM (inactive) |  | 13.8 µM (inactive) | 20.4 µM (inactive) | 21.5 µM (inactive) | 
O=C(NCc1ccccc1)C1C(=O)C(=O)N(Cc2ccccc2)C1=O (configuration not stated) | > 100 µM (inactive) | > 100 µM (inactive) | > 100 µM (inactive) | > 100 µM (inactive) | > 100 µM (inactive) | > 100 µM (inactive) |  | > 100 µM (inactive) | > 100 µM | > 100 µM (inactive) | > 100 µM (inactive) | > 100 µM (inactive) |  | > 100 µM (inactive) | > 100 µM (inactive) |  | > 100 µM (inactive) | > 100 µM (inactive) | > 100 µM (inactive) | 
C/C(=C\C(C)COCc1ccccc1)[C@H](COCc1ccccc1)OCc1ccccc1 (some centres not stated) | > 100 µM (inactive) | > 100 µM (inactive) | 46.9 µM (inactive) | > 100 µM (inactive) | 24.2 µM (inactive) | > 100 µM (inactive) |  | > 100 µM (inactive) | > 100 µM | > 100 µM (inactive) | > 100 µM (inactive) | 73.1 µM (inactive) |  | 83.9 µM (inactive) | > 100 µM (inactive) |  | 85.1 µM (inactive) | > 100 µM (inactive) | > 100 µM (inactive) | 
CC(C)CC(NC(=O)C(CCC(=O)OCc1ccccc1)NC(=O)OC(C)(C)C)C(=O)NC(COCc1ccccc1)C(=O)NC(Cc1ccccc1)C(=O)Oc1c(Cl)c(Cl)c(Cl)c(Cl)c1Cl (configuration not stated) (Boc-E(OBn)LS(Bn)F-X27; configuration not given here) | 27.2 µM (inactive) | 16 µM (inactive) | 22.6 µM (inactive) | 28.6 µM (inactive) | > 100 µM (inactive) | 28.5 µM (inactive) | > 100 µM (inactive) | 23.4 µM (inactive) | 25.8 µM | 20.4 µM (inactive) |  |  |  | 22.2 µM (inactive) | 35.7 µM (inactive) | 20 µM (inactive) | 16.6 µM (inactive) |  |  | 
